In paper PMC10424179, “Disrupting Kaposi’s Sarcoma-Associated Herpesvirus (KSHV) Latent Replication with a Small Molecule Inhibitor” (Journal of Medicinal Chemistry, 2023):

Assays:
[1] = biological target: T1, LANA–DNA interaction (LANA DBD aa934-1162 wild type / LBS1) (Human herpesvirus 8 type P, UniProt Q9QR71); assay: EMSA, LANA DBD wild type with LBS1; format: biochemical, Kaposi's sarcoma-associated herpesvirus (KSHV)
T1 construct: LANA DBD (aa934-1162) wild type protein (200 nM final) was incubated with
Protocol: (§1) Equation y = A2 + (A1-A2)/(1 + (x/x0)^p)
Fig S1: Binding affinity curves via MST for all compounds. Values are means of at least three replicates.
1.4 Electrophoretic Mobility Shift Assay (EMSA)
The EMSA was carried out with slight modific ations as described previously 2 based on the assay in Hellert et al. (2013). 3 His-tagged oligomerization-deficient LANA DBD (aa1008-1146) mutant protein or LANA DBD (aa934-1162) wild type protein (200 nM final) was incubated with a 5´-Dy682-labeled double stranded DNA probe (IBA Lifesciences) (20 nM final) for 30 minutes at RT in the dark. The reaction buffer consisted of 30 mM Tris HCl pH 7.5, 50 mM KCl, 10 mM MgCl2, 1 mM DTT, 1 mM EDTA, 10% glycerol, 0.25% Tween20, 0.5 mg/mL BSA and 0.05 mg/mL poly(dI-dC). […]
dark. 10 µL of the reaction was run on a pre -run native 5% acrylamide gel for 45 minutes at 100V with tris-borate-EDTA buffer. Images of the gels were acquired and analysed with the Odyssey (Licor) using the Image Studio software.
Fig S2: Gels of EMSA experiments at 250 μM for all compounds (A) and dose-dependent curves for compound 20 using LANA DBD mutant (B) and LANA wildtype (C) as well as LBS1. Values are means […]
Gleichung y = A2 + (A1-A2)/(1 + (x/x0)^p) […]

[2] = biological target: T2, oligomerization-deficient mutant of a LANA C-terminal protein fragment (aa 1008–1146) (Human herpesvirus 8 (Kaposi's sarcoma-associated herpesvirus), UniProt Q76SB0); assay: Microscale thermophoresis (MST) binding assay; set-up: species or system Kaposi's sarcoma-associated herpesvirus (KSHV); settings: read-out: KD value (MST); LANA aa 1008–1146 mutant; means of at least three replicates
T2 sequence (Q76SB0 1008-1146): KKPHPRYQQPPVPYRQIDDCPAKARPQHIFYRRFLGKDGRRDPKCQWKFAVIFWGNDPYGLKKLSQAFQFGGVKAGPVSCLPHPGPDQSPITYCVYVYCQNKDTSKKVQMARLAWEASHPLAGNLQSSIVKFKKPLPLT
Description: In these assays, an oligomerization-deficient mutant of a LANA C-terminal protein fragment (aa 1008–1146) and an oligonucleotide representing LANA-binding site (LBS) 1 were used, which are convenient to use and handle for the described biophysical methods, while maintaining the essential DNA-binding interface.[25]
as §1
1.3 Microscale Thermophoresis (MST) Assay
Microscale Thermophoresis Assay was done as mentioned in a previous publication. 2

T1 sequence (Q9QR71 901-1129): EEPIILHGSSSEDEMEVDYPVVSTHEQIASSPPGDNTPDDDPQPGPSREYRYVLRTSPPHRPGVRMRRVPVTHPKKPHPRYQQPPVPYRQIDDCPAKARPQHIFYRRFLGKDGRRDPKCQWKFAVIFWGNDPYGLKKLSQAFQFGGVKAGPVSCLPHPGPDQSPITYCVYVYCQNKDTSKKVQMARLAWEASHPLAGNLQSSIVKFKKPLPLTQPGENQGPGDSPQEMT

## COc1ccc(-c2cc(C)c(-n3cc(-c4ccc(C(=O)O)cc4)nn3)cn2)c(Cl)c1 [Compound 20]
[1]
  IC50: 205 µM
[2]
  Kd: 14.1 ± 3.9 µM
